The target in data set [1] is MMP2 (Homo sapiens, UniProt P08253). Briefly: MMP activity assay (fluorogenic substrate), MMP2 catalytic domain. It counts as biochemical.
Data set [2] can be described thus: Cytotoxicity, alamarBlue viability, MRC-5. As to conditions: human, MRC-5 fibroblast cells, 48 hours incubation, read-out: MRC-5 LC50. It counts as cell-based. The procedure, abridged:
(§1)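 Cells exposed to compound dilutions for 48 hours, then alamarBlue added for 4 hours; fluorescence read at ex 540/em 590 nm. IC50 from six concentrations run in duplicate.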

In data set [3] the test system is isolated rat hearts. Kind of data set: Myocardial ischemia/reperfusion injury in isolated rat hearts (Langendorff), infarct size. Format: ex vivo. As to the method: Male Wistar rats were anesthetized with diethyl ether, heparin (500 U/kg i.v.) was administered and hearts were isolated. The hearts were assigned to three groups: (i) DMSO control and (ii) Compound 1 (1 μM) and (iii) Compound 1 (10 μM) treated. Stock solution of inhibitors was prepared in DMSO. The final DMSO concentration in all assays was 0.1%. Hearts were perfused in Langendorff mode with constant pressure (100 H2O cm) for 20 min at 37° C. then exposed to global ischemia for 30 min followed by 120 min of reperfusion. The DMSO and inhibitors were dissolved in Krebs-Henseleit buffer and administered only before onset of ischemia for 20 min (pretreatment) and during the first 30 min of reperfusion (FIG. 6). At the end of reperfusion, infarct size (IS) was defined by triphenyltetrazolium chloride staining (Csonka et al., 2010).
In separate experiments hearts were perfused to test cardioprotective effect of ALBH-know compound at 5 μM final concentration. The same protocol was used as mentioned above.

Data set [4] deals with T1, MMP1 (Homo sapiens (Human), UniProt P03956). Kind of data set: MMP activity assay (fluorogenic substrate), MMP1. Format: biochemical.
Target sequence in this assay (P03956 100-469, species assumed): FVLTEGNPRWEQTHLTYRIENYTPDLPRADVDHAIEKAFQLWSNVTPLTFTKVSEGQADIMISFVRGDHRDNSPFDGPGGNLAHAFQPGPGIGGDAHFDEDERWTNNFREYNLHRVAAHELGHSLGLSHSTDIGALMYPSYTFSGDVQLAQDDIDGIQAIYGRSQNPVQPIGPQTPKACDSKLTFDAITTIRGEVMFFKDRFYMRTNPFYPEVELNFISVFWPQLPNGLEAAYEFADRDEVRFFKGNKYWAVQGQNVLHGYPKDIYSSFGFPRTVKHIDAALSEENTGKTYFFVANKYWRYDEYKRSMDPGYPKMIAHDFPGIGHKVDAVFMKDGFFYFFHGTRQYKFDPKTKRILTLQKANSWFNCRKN
In data set [5] the target is MMP9 (Homo sapiens, UniProt P14780). Briefly: MMP activity assay (fluorogenic substrate), MMP9 catalytic domain. Format: biochemical. The note with it: Table 2.
Data set [6] concerns the target T2, MMP13 (Homo sapiens (Human), UniProt P45452). Briefly: MMP activity assay (fluorogenic substrate), MMP13 catalytic domain. Format: biochemical. As to conditions: Table 2; read-out: MMP13 IC50.
Data set [7] in a line: Cytotoxicity, alamarBlue viability, HCT116. Format: cell-based. The note with it: human, HCT116 colon tumor cells, 48 hours incubation, read-out: HCT116 LC50. In short, it runs like this: as §1
The target in data set [8] is T1, MMP1. Briefly: In vitro zymography assay (casein), MMP-1. Format: biochemical. As to conditions: % ± SD. As to the method: (§2) MMP-2 and MMP-9 enzymes were isolated from rat hearts and from rat spleen while human, recombinant MMP-1 and MMP-13 enzymes used were commercial. MMP-2, -9, -13 enzymes were separated by electrophoresis during non-reducing conditions on 8% SDS-polyacrylamide gels copolymerized with 2 mg/ml gelatin from porcine skin (Sigma Aldrich) while MMP-1 was separated under the same conditions on 8% SDS-polyacrylamide gels copolymerized with 2 mg/ml casein (Sigma Aldrich). […] In case of MMP-13 p-aminophenylmercuric acetate (APMA) was used for enzyme activation at 37° C. for 30 min. After electrophoresis, gels were washed in 2.5% Triton-X 100 with agitation and then incubated for 20 hrs at 37° C. in enzyme incubation buffer (50 mM Tris-HCl, pH 7.5, containing 5 mM CaCl2, 200 mM NaCl) with or without MMP inhibitor. Zymographic gels were stained in Coomassie Brilliant Blue R-250 and de-stained. Gelatin and casein zymograms were scanned. MMP activity is detected as a white zone on a blue background and the clear bands in the gel can be quantified by densitometry. The obtained density values were measured and % inhibition values calculated (Kupai et al., 2010). The table below summarizes the prescreen inhibition values determined for different MMP inhibitors on MMP1, -2, -9, -13.
Target sequence in this assay (P03956 100-469): as the sequence (P03956 100-469, species assumed) above

Data set [9] addresses MMP-9 (Rattus norvegicus (Rat), UniProt P50282). Kind of data set: In vitro zymography assay (gelatin), MMP-9. Format: biochemical. The note with it: % ± SD. As to the method:
as §2

For data set [10], the target named is T2, MMP13. Kind of data set: In vitro zymography assay (gelatin), MMP-13. It counts as biochemical. As to conditions: % ± SD. As to the method:
as §2

Where [11] appears, read: read-out: % inhibition MMP-1 (52 kDa).
Where [12] appears, read: read-out: % inhibition MMP-1 (55 kDa).

The structures appear in SMILES notation. “Also recorded” adds a separate entry of the source. Where two headings read alike, the source gives them in different places.

Chain of MMP-9 (P50282 108-708): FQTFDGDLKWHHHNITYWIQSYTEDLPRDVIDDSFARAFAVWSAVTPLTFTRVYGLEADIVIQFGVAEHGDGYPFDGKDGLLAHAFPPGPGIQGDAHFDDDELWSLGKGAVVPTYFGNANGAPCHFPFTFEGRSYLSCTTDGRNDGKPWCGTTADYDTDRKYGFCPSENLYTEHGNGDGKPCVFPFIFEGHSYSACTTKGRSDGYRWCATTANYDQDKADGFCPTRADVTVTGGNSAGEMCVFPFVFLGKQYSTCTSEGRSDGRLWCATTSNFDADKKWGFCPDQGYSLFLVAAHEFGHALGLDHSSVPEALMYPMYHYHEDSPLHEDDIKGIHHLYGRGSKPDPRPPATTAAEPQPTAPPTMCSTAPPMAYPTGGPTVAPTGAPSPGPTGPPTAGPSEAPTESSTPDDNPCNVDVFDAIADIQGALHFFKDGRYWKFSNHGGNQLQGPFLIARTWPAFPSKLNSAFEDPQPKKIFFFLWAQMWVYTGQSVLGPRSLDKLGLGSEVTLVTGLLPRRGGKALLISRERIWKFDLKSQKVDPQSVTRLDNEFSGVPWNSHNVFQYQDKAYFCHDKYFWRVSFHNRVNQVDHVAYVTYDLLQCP

`O=C(O)c1csc(CN(Cc2ccc(F)cc2)Cc2ccc(OCc3cccnc3)cc2)n1` [Compound 1, 2-({[(4-Fluorophenyl)methyl]({[4-(pyridin-3-ylmethoxy)phenyl]methyl})amino}methyl)-1,3-thiazole-4-carboxylic acid]: the IC50 in data set [1] (Table 2, read-out: MMP2 IC50) is 5.7 µM; in [1] (read-out: IC50 on MMP2), 5.7 µM; in data set [4] (Table 2, read-out: MM1 IC50) it was 51 µM; in [4] (read-out: IC50 on MMP1) it was 46 µM; in [5], 37 µM; in data set [6], 2.5 µM. Besides, the CC50 at 48 h in data set [2] worked out at 25 µM; in [7] it was 11 µM. The “myocardial IS (infarct size)” value in data set [3] (1 μM and 10 μM, administered before ischemia and during reperfusion, result in words) is given as “reduced myocardial IS; also recorded: decreased infarct size significantly”. The “Infarct size as compared with DMSO control” value in data set [3] (10 μM, isolated rat hearts, 30 min global ischemia, 120 min reperfusion, p<0.05) is reported as “significantly decreased infarct size”. Besides, the inhibition at 1 µM stood at 25.9 ± 9.51% in data set [8] (setting [11]); 29.2 ± 38.7% in [8] (setting [12]); 54.4 ± 2.33% in [10] (1 μM, read-out: % inhibition MMP-13 (50 kDa)). In addition, the inhibition at 100 µM in data set [8] (setting [11]) was found to be 58 ± 12.6%; in data set [8] (setting [12]), 95.3 ± 8.17%. The “% inhibition MMP-9 (92 kDa)” value in [9] (1 μM) and in [9] (100 μM) was “No inhibition” throughout. Further, the “% inhibition MMP-13 (50 kDa)” value in [10] (100 μM) is recorded as “No inhibition”.
